Read-outs that look alike come from different tables or passages of the source.
How the values were obtained:
[1] = molecular target: T1, human topoisomerase II (Homo sapiens, UniProt P11388); experiment: Mammalian Topoisomerase II Inhibition Assay (DNA-topo II complex formation); type: biochemical; conditions: EC50 = concentration with activity equal to EC50 of reference mAMSA; read-out: TopoII Inh. EC50
T1 construct: Topo II was purified from late log phase suspension cultures of HeLa WIS; endogenous in cells; host or cells: HeLa WIS suspension cultures, late log phase (enzyme purified from the cells)
Experimental: Mammalian Topoisomerase II Inhibition Assay Procedure
The assay quantitates the amount of topo II covalently complexed by DNA at equilibrium during a topo II reaction. This assay determines the potential of a compound to stabilize this complex, which potential is closely related to the cytotoxicity of the compound.
Assays (in duplicate) were assembled at 4° C.
4 ng 3' end labeled (^32 P) pBR322 DNA (10^7 DMP/μg)
The assay mix including the test compound was incubated for 20 minutes at 37° C. The reaction was terminated at 37° C. by the addition of 3 μl 10% SDS followed by the addition of 266 μl 10 mM Tris-Cl pH 7.5, 20 μg/ml BSA, 20 μg/ml calf thymus DNA, 1% SDS.
A SDS/protein precipitate was formed by the addition of 28 μl 2.5M KCl followed by chilling on ice for a minimum of 10 minutes. The precipitate was collected and washed with a Brandell cell harvester on a GFB glass fiber filter membrane as follows. The contents of the assay tube were drawn up into the harvester. The tube was then rinsed 7X with 10 mM Tris-Cl pH 7.5, 1 mM EDTA and 100 mM KCl. […] After drying, CPM was determined by liquid scintillation counting with 5 ml Biofluor (NEN Research Products) or Readisafe (Beckman Instruments Inc.) cocktail.
This solution then was diluted 1/5 into water and serially thereafter in either 0.02N sodium hydroxide or 0.04N hydrogen chloride, respectively. The stock solution and serial dilution of the test compound was stored at -20° C. prior to testing.
Screening of test compound--As an initial screen, the test compound was tested at a final concentration of 2, 20 and 200 μg/ml. The compound was then retested at a range of concentrations (usually 2-3X steps) bridging their approximate EC50 's, as estimated by the prescreen.
Controls--A solvent control which indicates the base level of topo II-DNA complex formed in the absence of the test compound was included in each test. A control, in which topo II was omitted, was included for each test compound at the highest drug concentration tested.
Reference Agent--A dose response curve with mAMSA at 0.01, 0.08, 0.16, 0.32, 1.0 and 10 μg/ml was included in each test.
The maximal DNA-topo II complex formed is taken as that equal to that formed at the nearly saturating dose of mAMSA (10 μg/ml).

[2] = test system: P388 murine leukemia cells; experiment: Malignant cell cytotoxicity, one-hour exposure (clonogenic survival in soft agar); type: cell-based; conditions: Mus musculus, 1 hr exposure, read-out: IC50 P388 1 hr. exp.
Experimental: (§1) Examples of compound I having Topo II activity were tested for malignant cell cytotoxicity. In vitro cytotoxicity was assayed by determining cell survival following exposure of P388 murine leukemia cells to a range of test compound concentrations. Cytotoxicity was quantitated following either a one-hour exposure or continuous exposure of P388 cells to test compound.
(§2) Cytotoxicity following a one-hour exposure of cells to drug was assayed by quantitating clonogenic cell survival according to a published procedure [Freshney, R. L. (1987) Culture of Animal Cells. A Manual of Basic Technique. Wiley-Liss Inc., New York, N.Y., pp. 140-144]. Briefly, following drug exposure cells were plated in soft agar and incubated (37°, 5% CO2) for 7-10 days during which time viable cells form visible colonies. Cytotoxicity following continuous exposure of cells to test compound was assayed by quantitating total P388 cells on a Coultier Counter following a 48-hour co-incubation of test compound with cells. P388 cells were maintained in log phase throughout the duration of cytotoxicity assays.
(§3) The percentage of cells surviving relative to an untreated control was graphed as a function of increasing drug concentration.

[3] = test system: P388 murine leukemia cells; experiment: Malignant cell cytotoxicity, continuous 48-hour exposure (Coulter Counter); type: cell-based; conditions: Mus musculus, read-out: IC50 P388 cont. exp.
Experimental: as §1, §2, §3

[4] = In vivo antitumor assay, Panc03(sc); parameters: species or system mouse; conditions: mouse, in vivo
Excerpt: (§4) Mice: Inbred: C3H/He and NCR-nu; and Hybrids: B6D2Fl (C57BL/6 females X DBA/2 males, CD2Fl (Balb/c females X DBS/2 males) and B6x C3fl (C57BL/6 x C3H) were bred at Wayne State University from strained obtained from the Frederick Cancer Research Facility, Frederick, Md. or purchased from commercial suppliers.
(§5) Tumors: Murine Tumor: P388 and an adriamycin-resistant (ADR) subline P388/ADR leukemia and the following transplantable solid tumors of mice were used for in Vivo testing: B16 melanoma (B16), pancreatic ductal adenocarcinoma No. 03 (Panc 03), colon adenocarcinoma No. 38 (colo 38), mammary ductal adenocarcinoma No. 16/C (Mam16) and an adriamycin-resistantsubline Mam16C/ADR. Human tumor: A single human tumor, mammary carcinoma MX-1 (MX1) was used for in vivo testing. All tumors are in the Developmental Therapeutics Program frozen tumor respository, maintained by the Biological Testing Branch, Frederick Md. Each has a detailed description, code identification number, and list of references at the National Tumor Repository. Murine tumors were maintained in the mouse strain of origin and were transplanted in the appropriate F1 hydrid (or the strain of origin) for therapy trials. Human mammary carcinoma MX-1 MX1) was maintained as a subcutaneous implant in either athymic Swiss (Cr: NIH(S)-nu) or athymic random bred (NCR-nu) mice and transplanted in NCR-nu for therapy trials.
(§6) Chemotherapy: For pancreatic ductal adenocarcinoma No. 3, colon adenocarcinoma No. 38 (colo38), lung carcinoma No. 12 (LC12) and both adriamycin-sensitive (RP) and -resistant ADR) mammary ductal adenocarcinoma No. 16 (Mam16) tumors, the following methods were used to help ensure a more uniform tumor burden per mouse (thus reducing the requirement for greater numbers of mice per group), bilateral tumor implants were used. The animals necessary to begin an experiment were pooled, implanted bilaterally s.c. on day zero with 30-60-mg tumor fragments using a 12-gauge trocar, and again pooled before randomization to the various treatment and control groups. Chemotherapy was started within three days after tumor implantation while the number of cells per mouse was relatively small (1×10^7 […]).
(§7) Quantitative end points used assess antitumor activity included % Increased Life Span (% ILS), Tumor Cell Kill (Log10 kill), and Tumor Growth Inhibition (T/C). Long Term Survivors (45 or 60 day) were excluded from calculations of % ILS and Tumor Cell Kill.
(§8) The log10 cell kill was calculated from the following formula: [formula] where T-C is the tumor difference in the median day of death between the treated (T) and the control (C) groups and Td is the tumor doubling time (in days), the latter estimated from the best fit straight line from a log-linear growth plot of the control-group tumors in exponential growth. The conversion of the T-C values to log10 cell kill is possible because the Td for tumors regrowing post-treatment approximated the Td values of the tumors in untreated control mice.
(§9) Tumors were measured with a caliper once or twice weekly (as needed) until either tumors exceeded 1600 mg or cure was assured. Tumor weights were estimated from two-dimensional measurements: Tumor Weight (mg)=(a×b^2) / 2, where a and b are the tumor length and width (nun) respectively. Measurements were carried out simultaneously in both treatment and control groups. When the control group tumors reached approximately 750-1500 mg in size (median of group), the median tumor weight of each group was determined (including zeros). The T/C value in percent is an indiation of antitumor effectiveness. The % T/C was calculated from the following formula for solid murine tumor models: [formula] where T and C are median tumor weights of the treatment and control groups, respectively. A T/C equal to or less than 42% is considered significant antitumor activity. […]

[5] = test system: pancreatic ductal adenocarcinoma No. 03 (Panc 03); experiment: In vivo antitumor assay, Panc03(sc); parameters: species or system mouse
Excerpt: as §4, §5, §6, §7, §8, §9

[6] = drug route iv, sc, Ex 18 iv qd 3 bid 4-9, sc bid 10-11, Ex 20 iv qd 3,5 bid 4,6-8, sc bid 9-11 qd 12, read-out: MTD
[7] = drug route iv, sc, Ex 18 iv qd 3 bid 4-9, sc bid 10-11, Ex 20 iv qd 3,5 bid 4,6-8, sc bid 9-11 qd 12

T1 sequence (P11388 whole entry): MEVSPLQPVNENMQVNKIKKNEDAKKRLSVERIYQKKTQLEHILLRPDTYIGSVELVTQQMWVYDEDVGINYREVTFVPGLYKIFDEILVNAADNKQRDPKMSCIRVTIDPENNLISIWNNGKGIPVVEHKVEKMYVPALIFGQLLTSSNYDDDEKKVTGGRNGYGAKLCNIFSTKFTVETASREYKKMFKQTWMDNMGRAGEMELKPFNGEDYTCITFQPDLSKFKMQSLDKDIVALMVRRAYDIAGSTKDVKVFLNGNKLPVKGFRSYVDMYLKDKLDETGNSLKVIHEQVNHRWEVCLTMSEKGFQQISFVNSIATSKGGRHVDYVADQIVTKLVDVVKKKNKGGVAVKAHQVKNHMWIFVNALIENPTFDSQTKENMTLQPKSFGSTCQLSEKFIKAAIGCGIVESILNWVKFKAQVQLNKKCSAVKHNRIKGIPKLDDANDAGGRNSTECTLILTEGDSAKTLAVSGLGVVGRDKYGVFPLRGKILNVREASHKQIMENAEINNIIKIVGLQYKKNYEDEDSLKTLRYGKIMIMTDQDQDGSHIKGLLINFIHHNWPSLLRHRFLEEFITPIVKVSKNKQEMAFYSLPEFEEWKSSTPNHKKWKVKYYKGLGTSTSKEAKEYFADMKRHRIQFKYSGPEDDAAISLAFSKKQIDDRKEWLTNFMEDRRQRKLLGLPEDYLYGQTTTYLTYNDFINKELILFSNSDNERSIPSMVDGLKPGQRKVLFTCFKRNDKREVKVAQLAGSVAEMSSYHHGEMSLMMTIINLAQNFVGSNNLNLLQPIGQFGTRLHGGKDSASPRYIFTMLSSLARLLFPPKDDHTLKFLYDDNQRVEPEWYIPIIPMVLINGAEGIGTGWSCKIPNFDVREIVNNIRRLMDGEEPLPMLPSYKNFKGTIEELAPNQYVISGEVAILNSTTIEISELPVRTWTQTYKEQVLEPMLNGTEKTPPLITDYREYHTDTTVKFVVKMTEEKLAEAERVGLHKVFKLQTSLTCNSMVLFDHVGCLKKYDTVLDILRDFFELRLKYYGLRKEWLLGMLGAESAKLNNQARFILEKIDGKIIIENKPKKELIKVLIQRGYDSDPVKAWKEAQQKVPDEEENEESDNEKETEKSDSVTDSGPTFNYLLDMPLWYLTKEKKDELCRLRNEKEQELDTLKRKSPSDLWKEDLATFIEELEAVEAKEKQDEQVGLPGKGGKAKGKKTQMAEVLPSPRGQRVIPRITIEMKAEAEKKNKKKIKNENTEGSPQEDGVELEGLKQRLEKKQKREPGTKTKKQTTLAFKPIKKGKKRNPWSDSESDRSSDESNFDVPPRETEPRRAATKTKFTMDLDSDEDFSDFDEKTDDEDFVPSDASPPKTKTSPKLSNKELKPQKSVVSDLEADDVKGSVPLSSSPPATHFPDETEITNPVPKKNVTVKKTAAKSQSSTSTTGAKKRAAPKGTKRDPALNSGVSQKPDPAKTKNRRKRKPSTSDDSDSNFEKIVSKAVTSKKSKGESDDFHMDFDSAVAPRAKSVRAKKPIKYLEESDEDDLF

| Compound | EC50 [1] [µM] | IC50 [2] [µM] | IC50 [3] [µM] | MTD ([4]; drug route sc, qd 3-12, footnote 1, read-out: MTD (MTD not achieved, maximum dose tested)) [mg/kg] | T/C % ([5]; drug route sc, Ex 3 qd 3-12, Ex 26 qd 3,5-7 bid 4) [%] | MTD [4, 6] [mg/kg] | T/C % [5, 7] [%] |
| --- | --- | --- | --- | --- | --- | --- | --- |
| Cc1cc(-c2c(F)cc3c(=O)c(Cc4ccccc4)cn(C4CC4)c3c2F)cc(C)n1 [Example 3] | 3.9 | 7.3 | 7.1 | > 3750 | > 100 |  |  |
| Cc1cc(-c2c(F)cc3c(=O)c(Cc4ncc[nH]4)cn(C4CC4)c3c2F)cc(C)n1 [Example 18] | 1.1 | 1.1 |  |  |  | 88 | 21 |
| Cc1cc(-c2c(F)cc3c(=O)c(Cc4cccc(F)c4OCc4ccccc4)cn(C4CC4)c3c2F)cc(C)n1 [Example 20] | > 90 | 0.25 |  |  |  | 336 | 80 |

Source: patent US5330992A, “1-cyclopropyl-4-pyridyl-quinolinones” (priority 1992, dated 1994)
